Assay results taken from patent publication US9884862B2, “Pyridopyrimidinedione derivatives” (Novartis AG, priority 2014, dated 2018).

Tests used:
[1] = tested on: alpha-L-Iduronidase W402X in Hurler patient derived fibroblast cells; assay: Hurler patient derived fibroblast cell cultures, restored alpha-L-iduronidase activity (W402X readthrough); format: cell-based, human; details: 8 days incubation, highest concentration 20 uM; for Emax / AC50: Homo sapiens, Fibroblast, 192 h; for Emax: read-out: Amax; for AC50: 8 point dilutions
Excerpt: Activity of compounds of the present invention was examined in patient derived fibroblast cells. The genotyped cells were derived from the Coriell Institute (# GM00798) and contain an in frame homozygous TGG to TAG change at nucleotide 1293 of exon 9 which results in a W402X mutation. The W402X mutation is one of the most common Hurler syndromes causing loss of function mutation. Between 60-70% of genotyped patients contain either the Q70X and/or the W402X in mutation and are classified as severe MPSI patients. This TAG stop codon triplet is permissive to aminoglycoside mediated translational readthrough which served as activity control for compound testing. Readthrough of W402X restores alpha-L-Iduronidase activity which results in removal of lysosomal accumulated Glycosaminoglycan's. Iduronidase expression could neither be detected by Taqman PCR© nor by enzyme activity or ELISA methods without compound stimulation. Compounds were tested in concentration response mode. Therefore 5000 patient cells/40 ul/well in 384 well plates were used. Compound dilutions were derived from freshly prepared 10 mM compound stock solutions. Highest concentration was 20 uM and subsequently diluted 1: 3.16 (8 point dilutions, n=4). Final DMSO concentration was below 0.5% and tested to be without effect on cell viability, growth and readthrough. Cells were incubated for 8 days with one cell media and compound exchange at day 3. Thereafter cell media was removed and cells were lysed (0.4 M Sodiumformate, 0.1% NaN3, 0.9% NaCl, 0.2% Triton, pH 3.5). Restored alpha-L-iduronidase activity in cell lysates was measured with the fluorescent 4-MU iduronide substrate (5 ul of 0.4 mM 4 Methylumbelliferyl alpha-L-iduronide/well) after 48 h incubation. Paromomycin was used as reference control (14 mM=100% control).

[2] = tested on: CFTR-Y122X; assay: CFTR-Y122X assay (dual reporter isogenic Hek293 cell lines, Renilla luminescence readthrough); format: cell-based; details: nonsense mutation suppression, 24 h incubation, tested up to 100 μM; for Emax: read-out: Amax
Excerpt: Activity of compounds of the present invention was examined in recombinant, dual reporter isogenic Hek293 cell lines (“CFTR-Y122X assay”). The engineered reporter constructs contained the 18 bp sequence stretch corresponding to a common Y122X PTC mutation in CFTR class I mutant patients (see Sermet-Gaudelus, BMC Medicine, 2007, 5(5)). Instead of a tyrosine (Y) in position 122 of the CFTR protein a TGA stop codon interrupts the open reading frame (Y122X) of the corresponding mRNA. This TGA stop codon triplet (followed by the pyrimidine base cytosine) is permissive to aminoglycoside mediated translational readthrough which served as positive control for high throughput screening. A corresponding TAA stop codon variant and a wildtype non mutated construct was used for confirmation and counter screening. The CFTR sequence was sandwiched between an eGFP reporter, and a triple myc tag sequence fused to a full length Renilla reporter. All sequences, including an intron containing one positioned pre-eGFP (b-globin intron) were cloned in frame. The corresponding expression constructs were stably expressed in the isogenic HEK-R4 cell host (Invitrogen Incorp.) and selected by blasticidin resistance. The isogenic integration of the construct minimizes gene dose effects and improves assay reproducibility. Stably integrated single cell derived clones were selected and characterized for aminoglycoside mediated readthrough. […] Readthrough of Y122X accumulates an intracellular localized fusion protein approximately 65.5 kDa in size as controlled by western blot analysis and immunofluorescence using an anti-renilla antibody. The eGFP reporter pre-PTC mutation serves as visual control for genetic stability of the screening clones and minimizes protein degradation of small fusion protein amounts. In the assay, compound concentration was 10 μM. In miniaturized 1536 well format 2000 cells were dispensed in 4 μl/well and incubated for 24 h at 37° C., 5% CO2. 40 nl compounds were placed on the cells with control wells containing 1 ul Paramomycin and 14.4 mM final concentration. Compounds were incubated for 24 h. Renilla Glo substrate (2.5 ul) was added and plates were centrifuged and processed for luminescence measurement using various readers. Activity calculation was done using the equation: A1(%)=100*(S−NC)/(AC−NC) where AC, NC and S correspond to active controls (injection of Stimulation buffer=100% stimulation), neutral controls (buffer injection which Iloprost EC10) and screening samples (S). NC corresponds to 0% activity whereas AC is 100% activity (14 mM paromomycin). False positive artifacts were removed in confirmation and validation screening using the same assay format followed by counterscreening using the respective wildtype construct (w/o PTC mutation) cell model. Compounds were tested up to 100 μM compound concentration.

[3] = 14 mM paromomycin = 100% control
[4] = Homo sapiens, HEK293, 24 h, 100% = 14 mM paromomycin

| SMILES | Emax [1, 3] [%] | Emax [2, 4] [%] | AC50 ([2]; Homo sapiens, HEK293, 24 h) [µM] | AC50 [1] [µM] | Amax [1, 3] [%] | Amax ([2]; 100% = 14 mM paromomycin) [%] | AC50 [2] [µM] |
| --- | --- | --- | --- | --- | --- | --- | --- |
| CC(C)c1nc2[nH]c3c(c(=O)c2c(=O)n1-c1ccccc1)CCC3 [Example 3.3, 2-isopropyl-3-phenyl-7,8-dihydro-3H-cyclopenta[5,6]pyrido[2,3-d]pyrimidine-4,5(6H,9H)-dione] | 8 | 112 | 21 |  |  |  |  |
| Cc1cc2c(s1)c(=O)c1c(=O)n(-c3ccccc3)c(C3CCC3)nc1n2C [Example 2.12, 2-cyclobutyl-7,9-dimethyl-3-phenylthieno[2′,3′:5,6]pyrido[2,3-d]pyrimidine-4,5(3H,9H)-dione] | 138 | 133 | 3 | 9 |  |  |  |
| Cc1cc2c(=O)c3c(=O)n(-c4ccccc4)c(C4CCC4)nc3n(C)c2s1 [Example 2.9, 2-cyclobutyl-7,9-dimethyl-3-phenylthieno[3′,2′:5,6]pyrido[2,3-d]pyrimidine-4,5(3H,9H)-dione] | 96 | 207 | 2.2 | 3.7 |  |  |  |
| Cn1c2cc(Cl)sc2c(=O)c2c(=O)n(-c3ccccc3)c(C3CCC3)nc21 [Example 2.17, 7-chloro-2-cyclobutyl-9-methyl-3-phenylthieno[2′,3′:5,6]pyrido[2,3-d]pyrimidine-4,5(3H,9H)-dione] | 128 | 151 | 4 | 10 |  |  |  |
| Cc1csc2c(=O)c3c(=O)n(-c4ccccc4)c(C(C)C)nc3n(C)c12 [Example 2.22, 2-isopropyl-8,9-dimethyl-3-phenylthieno[2′3′:5,6]pyrido[2,3-d]pyrimidine-4,5(3H,9H)-dione] | 8 | 166 | 16 |  |  |  |  |
| Cc1cc2c(=O)c3c(=O)n(-c4ccccc4)c(C(C)C)nc3n(C)c2s1 [Example 1.2, 2-isopropyl-7,9-dimethyl-3-phenylthieno[3′,2′:5,6]pyrido[2,3-d]pyrimidine-4,5(3H,9H)-dione] |  |  |  | 17 | 59 | 249 | 13 |
| Cc1csc2c1c(=O)c1c(=O)n(-c3ccccc3)c(C3CCC3)nc1n2C [Example 2.14, 2-cyclobutyl-6,9-dimethyl-3-phenylthieno[3′,2′:5,6]pyrido[2,3-d]pyrimidine-4,5(3H,9H)-dione] | 10 | 114 | 13 |  |  |  |  |
| Cn1c2ccsc2c(=O)c2c(=O)n(-c3ccccc3)c(C3CCC3)nc21 [Example 2.11, 2-cyclobutyl-9-methyl-3-phenylthieno[2′,3′:5,6]pyrido[2,3-d]pyrimidine-4,5(3H,9H)-dione] | 152 | 157 | 2 | 4.5 |  |  |  |
| CC(C)c1nc2[nH]c3sccc3c(=O)c2c(=O)n1-c1ccccc1 [Example 2.6, 2-isopropyl-3-phenylthieno[3′,2′:5,6]pyrido[2,3-d]pyrimidine-4,5(3H,9H)-dione] | 6 | 97 | 16 |  |  |  |  |
| Cn1c2nc(C3CCC3)n(-c3ccccc3)c(=O)c2c(=O)c2ccsc21 [Example 2.10, 2-cyclobutyl-9-methyl-3-phenylthieno[3′,2′:5,6]pyrido[2,3-d]pyrimidine-4,5(3H,9H)-dione] | 167 | 393 | 2 | 5.5 |  |  |  |
| Cc1cc2[nH]c3nc(C(C)C)n(-c4ccccc4)c(=O)c3c(=O)c2s1 [Example 2.8, 2-isopropyl-7-methyl-3-phenylthieno[2′,3′:5,6]pyrido[2,3-d]pyrimidine-4,5(3H,9H)-dione] | 65 | 225 | 7.9 | 10 |  |  |  |
| Cc1csc2c(=O)c3c(=O)n(-c4ccccc4)c(C4CCC4)nc3n(C)c12 [Example 2.15, 2-cyclobutyl-8,9-dimethyl-3-phenylthieno[2′,3′:5,6]pyrido[2,3-d]pyrimidine-4,5(3H,9H)-dione] | 115 | 188 | 2.6 | 5.7 |  |  |  |
| Cc1[nH]c2nc(C3CCC3)n(-c3ccccc3)c(=O)c2c(=O)c1C [Example 3.12, 2-cyclobutyl-6,7-dimethyl-3-phenylpyrido[2,3-d]pyrimidine-4,5(3H,8H)-dione] | 183 | 505 | 4.9 | 12 |  |  |  |
| CCc1cc2c(=O)c3c(=O)n(-c4ccccc4)c(C4CCC4)nc3n(C)c2s1 [Example 2.13, 2-cyclobutyl-7-ethyl-9-methyl-3-phenylthieno[3′,2′:5,6]pyrido[2,3-d]pyrimidine-4,5(3H,9H)-dione] | 66 | 118 | 6.1 | 16 |  |  |  |
| Cc1cc2c(=O)c3c(=O)n(-c4ccccc4)c(C4CCC4)nc3[nH]c2s1 [Example 2.1, 2-cyclobutyl-7-methyl-3-phenylthieno[3′,2′:5,6]pyrido[2,3-d]pyrimidine-4,5(3H,9H)-dione] | 42 | 211 | 12 | 12 |  |  |  |
| CC1CCc2c([nH]c3nc(C(C)C)n(-c4ccccc4)c(=O)c3c2=O)C1 (stereo not shown) [Example 3.6, 2-isopropyl-8-methyl-3-phenyl-6,7,8,9-tetrahydropyrimido[4,5-b]quinoline-4,5(3H,10H)-dione] | 10 | 46 | 27 |  |  |  |  |
| Cc1cc2c(=O)c3c(=O)n(-c4ccccc4)c(C4CCC4)nc3n(CCN)c2s1 [Example 2.2, 9-(2-aminoethyl)-2-cyclobutyl-7-methyl-3-phenylthieno[3′,2′:5,6]pyrido[2,3-d]pyrimidine-4,5(3H,9H)-dione] | 162 | 343 | 4.3 | 6.9 |  |  |  |
| CC(C)c1nc2[nH]c3cscc3c(=O)c2c(=O)n1-c1ccccc1 [Example 2.5, 2-isopropyl-3-phenylthieno[3′,4′:5,6]pyrido[2,3-d]pyrimidine-4,5(3H,9H)-dione] | 16 | 113 | 23 | 1.1 |  |  |  |
